Assay [1] has as its system Mycosphaerella graminicola; Anamorph: Septoria tritici; Bayer Code SEPTTR (standard laboratory isolate, SI SEPTTR). The experiment in a line: Type A (high volume) assay, leaf blotch of wheat, standard laboratory SEPTTR isolate (SI SEPTTR). The format is in vivo, Mycosphaerella graminicola on wheat plants (variety Yuma). Conditions: Zymoseptoria tritici, standard laboratory isolate, high volume, 50 ppm, wheat (Yuma). As for the experimental part: (§1) Example A: Evaluation of Fungicidal Activity: Leaf Blotch of Wheat (Mycosphaerella graminicola; Anamorph: Septoria tritici; Bayer Code SEPTTR)
(§2) For Type A assays, technical grades of the experimental fungicides in Table 4 below were dissolved in acetone, and then mixed with nine volumes of water containing 110 ppm Triton X-100. The fungicide solutions were applied onto wheat seedlings using an automated booth sprayer. For Type B assays, emulsifiable concentrate (EC) formulations of technical grades of the experimental fungicides in Table 4 below were prepared at 10% (w/v), and then mixed with 150 volumes of 0.1% Trycol 5941. These solutions were applied onto wheat seedlings using an automated track sprayer at 200 L/ha. All sprayed plants were allowed to air dry prior to further handling.
(§3) Wheat plants (variety Yuma) were grown from seed in a greenhouse in 50% mineral soil/50% soil-less Metro mix until the first leaf was fully emerged, with 7-10 seedlings per pot. Prior to or after application of experimental fungicides, plants were inoculated either with spores of a standard laboratory SEPTTR isolate (SI SEPTTR) or with spores from a SEPTTR field isolate collected from Wellsbourne, England in 2012 (FI SEPTTR). After inoculation the plants were kept for 3 days at 20° C. in 100% relative humidity (one day in a dark dew chamber followed by two days in a lighted dew chamber). Plants were then transferred to a 20° C. greenhouse for disease development. When disease symptoms were fully expressed on untreated plants, infection levels on treated plants were assessed on a scale of 0 to 100 percent disease severity. Percent disease control was calculated using the ratio of disease severity on treated plants relative to untreated plants.

Assay [2] is described as follows: Type B (low volume, EC formulation, track sprayer 200 L/ha) assay, leaf blotch of wheat, SEPTTR field isolate (FI SEPTTR). The format is in vivo, Mycosphaerella graminicola on wheat plants (variety Yuma). Particulars: Zymoseptoria tritici, 72 h. How it is done:
as §1, §2, §3

The mark [3] stands for this setting: 24 h, 1 Day Protectant, read-out: Disease Control, SI SEPTTR Type A Assay (50 ppm) 1 DP.
The mark [4] stands for this setting: 72 h, 3 Day Curative, read-out: Disease Control, SI SEPTTR Type A Assay (50 ppm) 3 DC.
[5] abbreviates: SEPTTR field isolate, low volume Type B assay, 100 g/ha, 3 Day Curative, wheat leaf blotch, read-out: Disease Control, FI SEPTTR Type B Assay (100 g/ha) 3 DC.
Where [6] appears, read: SEPTTR field isolate, low volume Type B assay, 100 g/ha, 3 Day Protectant, wheat leaf blotch, read-out: Disease Control, FI SEPTTR Type B Assay (100 g/ha) 3 DP.
Where [7] appears, read: field isolate, low volume EC, 100 g/ha, 3 Day Curative, wheat (Yuma), read-out: Disease Control, FI SEPTTR Type B Assay (100 g/ha) 3 DC.
[8] abbreviates: field isolate, low volume EC, 100 g/ha, 3 Day Protectant, wheat (Yuma), read-out: Disease Control, FI SEPTTR Type B Assay (100 g/ha) 3 DP.

Where two headings read alike, the source gives them in different places.

With `CC(C)(C)C(O)(c1cncnc1)c1ccc(-c2cccnc2)cn1` (stereo not shown) [Compound 126], in assay [1] (setting [3]), the pest or weed control at 50 ppm lay within 60 to 79%. For the compound `Cc1ccc(Oc2ccc(C(O)(c3cncnc3)C(C)C)nc2)nc1` (stereo not shown) [Compound 53], the figures for the pest or weed control at 50 ppm in assay [1] (setting [3]) and in assay [1] (setting [4]) were 40 to 59% and under 40%, respectively.

Consider `N#Cc1ccc(Oc2ccc(C(O)(Cn3cnnn3)C(F)(F)c3ccc(F)cc3F)nc2)cc1` (stereo not shown) [Compound 1, 4-((6-(1-(2,4-difluorophenyl)-1,1-difluoro-2-hydroxy-3-(1H-tetrazol-1-yl)propan-2-yl)pyridin-3-yl)oxy)benzonitrile], for which the pest or weed control at 50 ppm in assay [1] (setting [3]) was under 40%; in assay [1] (setting [4]), 40 to 59%. As for `OC(Cc1cccc(F)c1)(c1cncnc1)c1ccc(-c2ccc(OC(F)(F)F)cc2)cn1` (stereo not shown) [Compound 139, 2-(3-fluorophenyl)-1-pyrimidin-5-yl-1-[5-[4-(trifluoromethoxy)-phenyl]-2-pyridyl]ethanol], the pest or weed control at 50 ppm in assay [1] (setting [3]) fell in the range of 80 to 100%. In the case of `CC(C)C(O)(c1cncnc1)c1ccc(Oc2ccc(C(F)(F)F)cn2)cn1` (stereo not shown) [Compound 58], the figures for the pest or weed control at 50 ppm in assay [1] (setting [3]) and in assay [1] (setting [4]) were 60 to 79% and 80 to 100%, respectively. In the case of `OC(Cc1ccc(Cl)cc1)(c1cncnc1)c1ccc(-c2ccc(OC(F)(F)F)cc2)cn1` (stereo not shown) [Compound 140], the pest or weed control at 50 ppm in assay [1] (setting [3]) is 80 to 100%.

For the compound `CC(C)(C)C(O)(c1cncnc1)c1ccc(-c2ccsc2)cn1` (stereo not shown) [Compound 110], the pest or weed control at 50 ppm in assay [1] (setting [3]) lay within 80 to 100%. Same read-out and setting: the value for `Cc1cncc(C(O)(c2ccc(-c3ccc(OC(F)(F)F)cc3)cn2)C(C)(C)C)c1` (stereo not shown) [Compound 144] was 80 to 100%; that for `OC(c1cncnc1)(c1ccc(-c2ccc(Cl)cc2)cn1)C1CC1` (stereo not shown) [Compound 66] was 80 to 100%; that for `CC(C)C(O)(c1ccc(-c2ccc(OC(F)(F)F)cc2)cn1)c1cncs1` (stereo not shown) [Compound 87] was 80 to 100%. On the same count and under the same terms, with `COc1ncncc1C(O)(c1ccc(-c2ccc(C(C)(C)C#N)cc2C)cn1)C(C)(C)C` (stereo not shown) [Compound 129, 2-(4-(6-(1-hydroxy-1-(4-methoxypyrimidin-5-yl)-2,2-dimethylpropyl)pyridin-3-yl)-3-methylphenyl)-2-methylpropanenitrile] the figure was 60 to 79%. On to `OC(CCc1ccc(Cl)cc1)(Cn1cnnn1)c1ccc(Oc2ccc(C(F)(F)F)cn2)cn1` (stereo not shown) [Compound 15], for which the pest or weed control at 50 ppm in assay [1] (setting [3]) lay in the range of 60 to 79%; in assay [1] (setting [4]) it was 40 to 59%.

For the compound `OC(CCc1ccc(F)cc1F)(Cn1cnnn1)c1ccc(Oc2ccc(C(F)(F)F)cn2)cn1` (stereo not shown) [Compound 5], the pest or weed control at 50 ppm in assay [1] (setting [3]) was under 40%; in assay [1] (setting [4]), 40 to 59%.

As for `CC(C)(C#N)c1ccc(-c2ccc(C(O)(c3cncc(F)c3)C(C)(C)C)nc2)cc1` (stereo not shown) [Compound 262], the pest or weed control at 100 g/ha in assay [2] (setting [5]) and in assay [2] (setting [6]) was 80 to 100% each time. Consider `CC(C)(C)c1ccc(-c2ccc(C(O)(Cc3cccnc3)C(C)(C)C)nc2)cc1` (stereo not shown) [Compound 201], for which the pest or weed control at 100 g/ha fell in the range of 60 to 79% in assay [2] (setting [7]) and 80 to 100% in assay [2] (setting [8]). For the compound `COC(c1cncnc1)(c1ccc(-c2ccc(OC(F)(F)F)cc2)cn1)C(C)C` (stereo not shown) [Compound 194], the pest or weed control at 100 g/ha in assay [2] (setting [7]) is under 40%; in assay [2] (setting [8]), 80 to 100%.

Regarding `CC(C)(C#N)c1ccc(-c2ccc(C(O)(c3cnccn3)C(C)(C)C)nc2)cc1` (stereo not shown) [Compound 188], the pest or weed control at 100 g/ha is 60 to 79% in assay [2] (setting [7]) and 80 to 100% in assay [2] (setting [8]).

As to `C#CCOC(C#CC)(c1cncnc1)c1ccc(-c2ccc(OC(F)(F)F)cc2)cn1` (stereo not shown) [Compound 270], the pest or weed control at 100 g/ha in assay [2] (setting [5]) is under 40%; in assay [2] (setting [6]), 40 to 59%. Take `CCOC(c1cncnc1)(c1ccc(-c2ccc(OC(F)(F)F)cc2F)cn1)C(C)C` (stereo not shown) [Compound 176]: the pest or weed control at 100 g/ha in assay [2] (setting [7]) is under 40%; in assay [2] (setting [8]), 60 to 79%. On the same counts, the results for `COc1ncncc1C(O)(c1ccc(-c2ccc(OC(F)(F)F)cc2F)cn1)C(C)(C)C` (stereo not shown) [Compound 187] are 80 to 100% and 80 to 100%. Consider `CCC(O)(c1cncnc1)c1ccc(-c2ccc(OC(F)(F)F)cc2)cn1` (stereo not shown) [Compound 258], for which the pest or weed control at 100 g/ha in assay [2] (setting [5]) was under 40%; in assay [2] (setting [6]) it was 60 to 79%.

Consider `CC(C)(C)C(O)(c1cncnc1)c1ccc(-c2ccc(I)cc2)cn1` (stereo not shown) [Compound 165, 1-(5-(4-iodophenyl)pyridin-2-yl)-2,2-dimethyl-1-(pyrimidin-5-yl)propan-1-ol], for which the pest or weed control at 100 g/ha in assay [2] (setting [7]) and in assay [2] (setting [8]) was 80 to 100% in each case. Regarding `Cc1cc(C(C)(C)C#N)ccc1-c1ccc(C(O)(c2cncnc2)C(C)(C)C)nc1` (stereo not shown) [Compound 223], the pest or weed control at 100 g/ha in assay [2] (setting [7]) and in assay [2] (setting [8]) was 80 to 100% each time. Take `C#CCOC(CC)(c1cncnc1)c1ccc(-c2ccc(OC(F)(F)F)cc2F)cn1` (stereo not shown) [Compound 238]: the pest or weed control at 100 g/ha was 60 to 79% in assay [2] (setting [7]) and under 40% in assay [2] (setting [8]). With `CCOC(C)(c1cncnc1)c1ccc(-c2ccc(OC(F)(F)F)cc2)cn1` (stereo not shown) [Compound 177], the pest or weed control at 100 g/ha was under 40% in assay [2] (setting [7]) and 60 to 79% in assay [2] (setting [8]).

For `COc1ncncc1C(O)(c1ccc(-c2ccc(C3(C#N)CC3)cc2F)cn1)C(C)(C)C` (stereo not shown) [Compound 233], the pest or weed control at 100 g/ha in assay [2] (setting [7]) and in assay [2] (setting [8]) was 80 to 100% throughout.

As for `COc1ncncc1C(O)(c1ccc(-c2ccc(C(C)(F)F)cc2)cn1)C(C)(C)C` (stereo not shown) [Compound 246], the pest or weed control at 100 g/ha in assay [2] (setting [7]) fell in the range of 60 to 79%; in assay [2] (setting [8]), 80 to 100%. On the same counts, the results for `OC(c1cncnc1)(c1ccc(-c2ccc(OC(F)(F)F)cc2F)cn1)C1CC1` (stereo not shown) [Compound 184] are under 40% and 40 to 59%.

With `C#CCOC(CC)(c1cncnc1)c1ccc(-c2ccc(OC(F)(F)F)cc2)cn1` (stereo not shown) [Compound 260], the pest or weed control at 100 g/ha in assay [2] (setting [5]) is under 40%; in assay [2] (setting [6]), 40 to 59%. For the compound `CC(C)(C)C(O)(c1ccc(-c2ccc(OC(F)(F)F)cn2)cn1)c1cnccn1` (stereo not shown) [Compound 174], the pest or weed control at 100 g/ha was 60 to 79% in assay [2] (setting [7]) and 80 to 100% in assay [2] (setting [8]). On the same counts, the results for `COC(C)(c1cncnc1)c1ccc(-c2ccc(OC(F)(F)F)cc2)cn1` (stereo not shown) [Compound 241] are under 40% and 40 to 59%. On the same counts, the results for `CC(C)(C)C(O)(c1ccc(-c2ccc(OCC(F)(F)F)nc2)cn1)c1cnccn1` (stereo not shown) [Compound 180] are 60 to 79% and 40 to 59%.

Turning to `CCC(C#N)(CC)c1ccc(-c2ccc(C(O)(c3cncnc3)C(C)(C)C)nc2)c(F)c1` (stereo not shown) [Compound 268], the pest or weed control at 100 g/ha in assay [2] (setting [5]) and in assay [2] (setting [6]) was 80 to 100% each time. With `CC(C)(C#N)c1ccc(-c2ccc(C(O[Si](C)(C)C)(c3cncnc3)C(C)(C)C)nc2)cc1` (stereo not shown) [Compound 259], the pest or weed control at 100 g/ha fell in the range of 60 to 79% in assay [2] (read-out: Disease Control, FI SEPTTR Type B Assay (100 g/ha) 3 DC) and 80 to 100% in assay [2] (read-out: Disease Control, FI SEPTTR Type B Assay (100 g/ha) 3 DP). For the compound `CCC(C#N)(CC)c1ccc(-c2ccc(C(O)(c3cncnc3)C(C)(C)C)nc2)c(C)c1` (stereo not shown) [Compound 264], the pest or weed control at 100 g/ha in assay [2] (setting [5]) and in assay [2] (setting [6]) was 80 to 100% throughout. Take `CC(C)(C)C(O)(c1ccc(-c2ccc(OCC(F)(F)F)cc2)cn1)c1cnccn1` (stereo not shown) [Compound 225]: the pest or weed control at 100 g/ha is 80 to 100% in assay [2] (setting [7]) and 60 to 79% in assay [2] (setting [8]). As to `CCOC(c1cncnc1)(c1ccc(-c2ccc(OC(F)(F)F)cc2)cn1)C1CC1` (stereo not shown) [Compound 232], the pest or weed control at 100 g/ha in assay [2] (setting [7]) was under 40%; in assay [2] (setting [8]) it was 60 to 79%. On the same counts, the results for `CCOC(c1cncnc1)(c1ccc(-c2ccc(OC(F)(F)F)cc2)cn1)C(C)(C)C` (stereo not shown) [Compound 198] are under 40% and 80 to 100%. In the same order, the values of `COc1ncncc1C(O)(c1ccc(-c2ccc(C(C)(C)C#N)cc2F)cn1)C(C)(C)C` (stereo not shown) [Compound 256] are 80 to 100% and 80 to 100%.
